The target of assay [1] is T1, glutathione-S-transferase (GST) tagged LXRbeta LBD (ligand binding domain) (Homo sapiens, UniProt P55055).
T1 construct: purchased Invitrogen pv4658
T1 sequence (P55055 222-460 limits assumed): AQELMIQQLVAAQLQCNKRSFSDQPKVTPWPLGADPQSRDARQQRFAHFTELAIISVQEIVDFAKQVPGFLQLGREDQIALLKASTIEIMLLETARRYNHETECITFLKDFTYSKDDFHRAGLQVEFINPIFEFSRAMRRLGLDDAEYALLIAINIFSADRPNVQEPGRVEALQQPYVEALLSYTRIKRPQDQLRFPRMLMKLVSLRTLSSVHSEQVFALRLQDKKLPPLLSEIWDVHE
The assay can be described thus: LanthaScreen TR-FRET Liver X Receptor Coactivator Assay, LXR beta. The class given is biochemical. The settings on record: for EC50: LXR beta IP, potency (Inflection Point), compound-induced co-activator recruitment, TR-FRET; for Emax: read-out: LXR beta actiivty at max dose, efficacy (% Emax) in relation to reference dual agonist T0901317. The procedure, abridged: (§1)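 Coactivator recruitment format: receptor LBD exposed to compounds, detection via Tb-antibody/fluorescein-peptide pair, room-temperature incubation, TR-FRET signal on a filter instrument.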
Background: In TR-FRET formats the signal depends on donor and acceptor labels being close together.

Assay [2] has as its target T2, glutathione-S-transferase (GST) tagged LXRalpha LBD (ligand binding domain) (Homo sapiens, UniProt Q13133).
T2 construct: purchased Invitrogen pv4655
T2 sequence (Q13133 209-447 limits assumed): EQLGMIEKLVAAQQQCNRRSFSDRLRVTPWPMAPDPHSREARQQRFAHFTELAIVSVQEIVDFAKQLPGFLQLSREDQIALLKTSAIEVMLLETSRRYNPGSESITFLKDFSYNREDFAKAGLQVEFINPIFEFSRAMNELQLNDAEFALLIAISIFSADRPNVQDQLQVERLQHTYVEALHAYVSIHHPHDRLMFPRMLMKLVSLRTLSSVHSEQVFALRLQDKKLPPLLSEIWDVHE
The assay can be described thus: biochemical. As to conditions: for EC50: LXR alpha IP; for EC50 / LXR alpha IP: potency (Inflection Point), compound-induced co-activator recruitment, TR-FRET; for Emax: read-out: LXR alpha actiivty at max dose, efficacy (% Emax) in relation to reference dual agonist T0901317. The essentials:
as §1

With `Cc1nnc(C(C)(C)C(=O)N2CCC3(CC2)CC3CCOc2ccc(C(=O)N(C)C)c(Cl)c2)s1` (single isomer, unassigned) [Example 12-2, (R or S)-2-chloro-N,N-dimethyl-4-(2-(6-(2-methyl-2-(5-methyl-1,3,4-thiadiazol-2-yl)propanoyl)-6-azaspiro[2.5]octan-1-yl)ethoxy)benzamide], in assay [1], it took 661 nM to reach a half-maximal effect (EC50) and the Emax (in general, the greatest response seen or fitted, relative to the assay's reference) worked out at 57%. For the same molecule, in assay [2], the midpoint of the response, the EC50, lay at 10500 nM and the Emax came out at 52%.

Take `CN(C)C(=O)c1ccc(OCCC2CC23CCN(C(=O)Cc2cccc(Br)c2)CC3)cc1Cl` (single isomer, unassigned) [Example 12-3, (R or S)-4-(2-(6-(2-(3-bromophenyl)acetyl)-6-azaspiro[2.5]octan-1-yl)ethoxy)-2-chloro-N,N-dimethylbenzamide]: in assay [1], the EC50 – broadly, the concentration that produces a half-maximal response – is 153 nM and the Emax stood at 28%. Moreover, in assay [2], the “LXR alpha IP” value is “No IP” and the Emax was found to be 1%.

`CN(C)C(=O)c1ccc(OCCC2CC23CCN(C(=O)C2(c4ccccc4)CCCN(C(=O)OC(C)(C)C)C2)CC3)cc1Cl` (single isomer, unassigned) [Example 12-4, tert-butyl 3-((R or S)-1-(2-(3-chloro-4-(dimethylcarbamoyl)phenoxy)ethyl)-6-azaspiro[2.5]octane-6-carbonyl)-3-phenylpiperidine-1-carboxylate]: in assay [1], the EC50 was 182 nM and the Emax was determined as 22%. In addition, in assay [2], the “LXR alpha IP” value is “No IP” and the Emax turned out to be 0%.

In the case of `CN(C)C(=O)c1ccc(OCCC2CC23CCN(C(=O)C2(c4ccccc4Cl)CCC2)CC3)cc1Cl` (single isomer, unassigned) [Example 12-5, (R or S)-2-chloro-4-(2-(6-(1-(2-chlorophenyl)cyclobutanecarbonyl)-6-azaspiro[2.5]octan-1-yl)ethoxy)-N,N-dimethylbenzamide], in assay [1], the midpoint of the response, the EC50, lay at 3 nM and the Emax worked out at 54%. In assay [2], the midpoint of the response, the EC50, lay at 91 nM and the Emax came out at 49%.

With `CN(C)C(=O)c1ccc(OCCC2CC23CCN(C(=O)C2(c4ccccc4C(F)(F)F)CCC2)CC3)cc1Cl` (single isomer, unassigned) [Example 12-6, (R or S)-2-chloro-N,N-dimethyl-4-(2-(6-(1-(2-(trifluoromethyl)phenyl)cyclobutanecarbonyl)-6-azaspiro[2.5]octan-1-yl)ethoxy)benzamide], in assay [1], the half-maximal effective concentration (EC50) was 4 nM and the Emax was 68%. Further, in assay [2], the EC50 came to 80 nM and the Emax stood at 48%.

As to `CN(C)C(=O)c1ccc(OCCC2CC23CCN(C(=O)C(C)(C)c2ccsc2)CC3)cc1Cl` (single isomer, unassigned) [Example 12-7, (R or S)-2-chloro-N,N-dimethyl-4-(2-(6-(2-methyl-2-(thiophen-3-yl)propanoyl)-6-azaspiro[2.5]octan-1-yl)ethoxy)benzamide], in assay [1], the EC50 came out at 29 nM and the Emax amounted to 64%. For the same molecule, in assay [2], the half-maximal effective concentration (EC50) amounted to 589 nM and the Emax was 39%.

Consider `CN(C)C(=O)c1ccc(OCC[C@H]2CC23CCN(C(=O)[C@@](N)(c2ccccc2)C(F)(F)F)CC3)cc1Cl` (single isomer, unassigned) [Example 12-8, 4-(2-((R or S)-6-((S or R)-2-amino-3,3,3-trifluoro-2-phenylpropanoyl)-6-azaspiro[2.5]octan-1-yl)ethoxy)-2-chloro-N,N-dimethylbenzamide], for which, in assay [1], the EC50 is 135 nM and the Emax came to 67%. Also, in assay [2], it took 2230 nM to reach a half-maximal effect (EC50) and the maximal response (Emax) worked out at 23%.

Take `CN(C)C(=O)c1ccc(OCC[C@H]2CC23CCN(C(=O)[C@](N)(c2ccccc2)C(F)(F)F)CC3)cc1Cl` (single isomer, unassigned) [Example 12-9, 4-(2-((R or S)-6-((R or S)-2-amino-3,3,3-trifluoro-2-phenylpropanoyl)-6-azaspiro[2.5]octan-1-yl)ethoxy)-2-chloro-N,N-dimethylbenzamide]: in assay [1], the midpoint of the response, the EC50, lay at 50 nM and the Emax came out at 65%. Also, in assay [2], the “LXR alpha IP” value is “No IP” and the Emax came to 0%.

For `CN(C)C(=O)c1ccc(OCCC2CC23CCN(C(=O)C(C)(C)c2csc(N)n2)CC3)cc1Cl` (single isomer, unassigned) [Example 12-10, (R or S)-4-(2-(6-(2-(2-aminothiazol-4-yl)-2-methylpropanoyl)-6-azaspiro[2.5]octan-1-yl)ethoxy)-2-chloro-N,N-dimethylbenzamide], in assay [1], it took 608 nM to reach a half-maximal effect (EC50) and the Emax turned out to be 61%. For the same molecule, in assay [2], a half-maximal response (EC50) required 3740 nM and the Emax stood at 21%.

`CN(C)C(=O)c1ccc(OCCC2CC23CCN(C(=O)C2(c4cc(F)ccc4F)CCC2)CC3)cc1Cl` (single isomer, unassigned) [Example 12-11, (S or R)-2-chloro-4-(2-(6-(1-(2,5-difluorophenyl)cyclobutanecarbonyl)-6-azaspiro[2.5]octan-1-yl)ethoxy)-N,N-dimethylbenzamide]: in assay [1], the concentration giving a half-maximal response (EC50) was determined as 12 nM and the maximal response (Emax) was determined as 87%. In addition, in assay [2], the EC50 stood at 447 nM and the maximal effect (Emax) was found to be 24%.

As for `CN(C)C(=O)c1ccc(OCCC2CC23CCN(C(=O)C2(c4ccc(Br)cc4)COC2)CC3)cc1Cl` (single isomer, unassigned) [Example 12-12, (S or R)-4-(2-(6-(3-(4-bromophenyl)oxetane-3-carbonyl)-6-azaspiro[2.5]octan-1-yl)ethoxy)-2-chloro-N,N-dimethylbenzamide], in assay [1], a half-maximal effect (EC50) was put at 81 nM and the Emax stood at 60%. For the same molecule, in assay [2], the “LXR alpha IP” value was “No IP” and the Emax came to 28%.

In the case of `CCC(C)(C(=O)N1CCC2(CC1)C[C@H]2CCOc1ccc(C(=O)N(C)C)c(Cl)c1)c1ccccc1` (single isomer, unassigned) [Example 12-13, 2-chloro-N,N-dimethyl-4-(2-((1S or 1R)-6-(2-methyl-2-phenylbutanoyl)-6-azaspiro[2.5]octan-1-yl)ethoxy)benzamide], in assay [1], the response was half-maximal at 17 nM (EC50) and the Emax came to 72%. Besides, in assay [2], a half-maximal response (EC50) required 505 nM and the Emax came out at 26%.

Regarding `CN(C)C(=O)c1ccc(OCC[C@@H]2CC23CCN(C(=O)C(C)(c2ccccc2)C2CCC2)CC3)cc1Cl` (single isomer, unassigned) [Example 12-14, 2-chloro-4-(2-((S or R)-6-((S or R)-2-cyclobutyl-2-phenylpropanoyl)-6-azaspiro[2.5]octan-1-yl)ethoxy)-N,N-dimethylbenzamide], in assay [1], the EC50 stood at 22 nM and the Emax came out at 74%. Also, in assay [2], the response was half-maximal at 343 nM (EC50) and the Emax came out at 20%.

Consider `CC(C)[C@@](O)(C(=O)N1CCC2(CC1)C[C@H]2CCOc1ccc(C(=O)N(C)C)c(Cl)c1)C(F)(F)F` (single isomer, unassigned) [Example 12-15, 2-chloro-4-(2-((S or R)-6-((R or S)-2-hydroxy-3-methyl-2-(trifluoromethyl)butanoyl)-6-azaspiro[2.5]octan-1-yl)ethoxy)-N,N-dimethylbenzamide], for which the EC50 is 62 nM in assay [1] and 2090 nM in assay [2]. The Emax in assay [1] was found to be 79%; in assay [2], 37%.

For `CN(C)C(=O)c1ccc(OCC[C@@H]2CC23CCN(C(=O)C(O)(c2cccc4c2OC(F)(F)O4)C(F)(F)F)CC3)cc1Cl` (single isomer, unassigned) [Example 12-16, 2-chloro-4-(2-((1S or 1R)-6-(2-(2,2-difluorobenzo[d][1, 3]dioxol-4-yl)-3,3,3-trifluoro-2-hydroxypropanoyl)-6-azaspiro[2.5]octan-1-yl)ethoxy)-N,N-dimethylbenzamide], in assay [1], the EC50 was 26 nM and the Emax was 33%. Moreover, in assay [2], the “LXR alpha IP” value was “No IP” and the Emax was determined as 8%.

Turning to `CN(C)C(=O)c1ccc(OCC[C@@H]2CC23CCN(C(=O)C2(c4ccccc4Br)CCC2)CC3)cc1Cl` (single isomer, unassigned) [Example 12-17, (S or R)-4-(2-(6-(1-(2-bromophenyl)cyclobutanecarbonyl)-6-azaspiro[2.5]octan-1-yl)ethoxy)-2-chloro-N,N-dimethylbenzamide], in assay [1], a half-maximal response (EC50) required 9 nM and the Emax amounted to 79%. In assay [2], the EC50 worked out at 166 nM and the Emax came out at 35%.

For the molecule `CN(C)C(=O)c1ccc(OCCC2CC23CCN(S(=O)(=O)C(C)(C)c2ccccc2)CC3)cc1Cl` (single isomer, unassigned) [Example 12-18, (S or R)-2-chloro-N,N-dimethyl-4-(2-(6-(2-phenylpropan-2-ylsulfonyl)-6-azaspiro[2.5]octan-1-yl)ethoxy)benzamide], in assay [1], the EC50 is 80 nM and the Emax turned out to be 26%. Besides, in assay [2], the EC50 is 1180 nM and the Emax was determined as 27%.

For the origin of these results see patent US11655216B2 (priority 2016, dated 2023).
